Where a name gives a salt, the structure may show the parent alone. A value given as a limit tells only on which side of the number the result lay.

In this assay the target is T1, human GYS1 (glycogen synthase) (Homo sapiens, UniProt P13807).
T1 construct: made in house; host or cells: HEK293T
T1 sequence (P13807 1-737): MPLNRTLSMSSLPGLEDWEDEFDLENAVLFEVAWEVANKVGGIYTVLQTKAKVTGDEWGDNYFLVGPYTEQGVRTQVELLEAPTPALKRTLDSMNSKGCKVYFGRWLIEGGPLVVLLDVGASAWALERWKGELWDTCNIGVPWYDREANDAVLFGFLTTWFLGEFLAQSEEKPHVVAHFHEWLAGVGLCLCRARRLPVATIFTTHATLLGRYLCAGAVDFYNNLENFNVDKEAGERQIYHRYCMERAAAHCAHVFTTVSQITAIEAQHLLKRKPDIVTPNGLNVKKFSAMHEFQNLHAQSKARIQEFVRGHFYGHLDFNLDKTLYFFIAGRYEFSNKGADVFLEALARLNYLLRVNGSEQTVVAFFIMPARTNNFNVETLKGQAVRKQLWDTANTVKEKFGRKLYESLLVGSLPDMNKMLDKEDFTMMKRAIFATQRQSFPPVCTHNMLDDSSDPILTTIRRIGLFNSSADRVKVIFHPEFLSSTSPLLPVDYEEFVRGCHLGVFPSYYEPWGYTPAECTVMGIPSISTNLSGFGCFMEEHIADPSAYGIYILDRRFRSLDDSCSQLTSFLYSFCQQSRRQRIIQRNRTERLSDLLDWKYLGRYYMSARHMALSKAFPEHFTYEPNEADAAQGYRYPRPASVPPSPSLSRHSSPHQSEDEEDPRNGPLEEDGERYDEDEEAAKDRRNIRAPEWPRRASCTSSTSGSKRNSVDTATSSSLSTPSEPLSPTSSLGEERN
The assay is described as follows: Measurement of glycogen synthase activity. In kind it is biochemical. The conditions noted are these: concentration causing 50% increase in relative activity; 100% = compound of Example 1 of WO/2011/058154 at 10 μM; 10 mM Glucose-6-phosphate; 37° C. for 25 minutes (Examples 1 to 61 and 67 to 82) or 20 minutes (Examples 62 to 66); absorbance at 340 nm. The procedure:
A human GYS1 expression plasmid (pCDNA3.1(+)-hGYS1) was constructed by the following method. By using a human skeletal muscle cDNA of Human MTC Panel I (Takara Bio Inc., 636742) as a template, a human GYS1 gene was amplified by a PCR method using cloning primers (Forward Primer: ATGCCTTTAAACCGCAC, Reverse Primer: TTAGTTACGCTCCTCGC). By using the amplified human GYS1 sequence as a template, restriction enzyme sequences were added by a PCR method using sub-cloning primers (Forward Primer: […], and Reverse Primer: […]), and then the human GYS1 gene was introduced between Xho I and Xba I sites of pCDNA3.1(+) (Invitrogen, V790-20).
Glycogen synthase was prepared by the following method. Human kidney-derived HEK293T cells were seeded in a dish (Thermo Fisher Scientific K.K., 168381) by using a 10% FBS-containing DMEM (Nacalai Tesque, Inc., 0845874) medium, and cultured overnight. Then, by using Lipofectamine LTX (Invitrogen, 15338-100), the cells were transfected with the human GYS1 expression vector according to the attached manual. After culturing under conditions of 37° C. and 5% CO2 for 2 days, the resultant was lysed in a lysis buffer (50 mM Tris-HCl (pH 8.0), 10 mM EDTA, 2 mM EGTA, 100 mM NaF, 1 mM PMSF, 1 mM DTT, and 1× Complete (Roche, 1873580)), homogenized, and then centrifuged at 16000×g at 4° C. for 15 minutes. The precipitated fraction re-dissolved by adding the lysis buffer was used as a glycogen synthase for evaluation.
The glycogen synthase activity was measured by the following method. To a polystyrene 96-well plate, solutions each containing 30 mM glycylglycine (pH 7.3), 40 mM KCl, 20 mM MgCl2, 9.2% DMSO containing one of the test compounds at one of various concentrations, and 10 mM Glucose-6-phosphate (Sigma-Aldrich, G7879) were added at 12 μL/well.
Next, a substrate solution containing 30 mM glycylglycine (pH 7.3), 4.3 mg/mL glycogen (Sigma-Aldrich, G8876), 21.6 mM UDP-glucose (Sigma-Aldrich, U4625), 21.6 mM phosphoenolpyruvic acid (Sigma-Aldrich, P0564), and 4.05 mM NADH (Sigma-Aldrich, N8129) was added at 18 μL/well.
Moreover, an enzyme solution containing 50 mM Tris-HCl (pH 8.0), 27 mM DTT (NACALAI TESQUE, INC., 14128-04), 0.2 mg/mL bovine serum albumin, 0.17 mg/mL glycogen synthase, and 1.5 μL pyruvate kinase/lactate dehydrogenase solution (Sigma-Aldrich, P0294) was added at 18 μL/well to prepare reaction solutions. After the reaction solutions were incubated (at 37° C. for 25 minutes for Examples 1 to 61 and 67 to 82 or at 37° C. for 20 minutes for Examples 62 to 66), the absorbance at 340 nm was measured by using Benchmark Plus (Bio-Rad Laboratories, Inc.).
The activity of each test compound was calculated by the following method. The absorbance at 340 nm of the reaction solution containing the compound and DMSO was subtracted from the absorbance at 340 nm of a reaction solution not containing the compound but containing only DMSO to calculate the change (ΔA340) in absorbance. The relative activity (%) of the test compound at each of the various concentrations was calculated, where the ΔA340 of a reaction solution containing the compound of Example 1 of WO/2011/058154 at a final concentration of 10 μM was taken as 100%. EC50 representing the concentration of the compound at which an increase in the relative activity by 50% was caused was calculated using XLfit (idbs).
In the case of `CNCCN(CC(=O)O)C(=O)c1cccc(COc2ccc(-c3cc(F)c(F)cc3SC)cc2)c1` [Example 28, 2-[[3-[[4-(4,5-Difluoro-2-methylsulfanyl-phenyl)phenoxy]methyl]benzoyl]-[2-(methylamino)ethyl]amino]acetic Acid Trifluoroacetate], the EC50 came to 10 nM.

`NC(=O)C1CC[C@@H](C(=O)O)N1C(=O)c1cccc(COc2ccc(-c3cc(F)c(F)c4ccoc34)cc2)c1` (single isomer, unassigned) [Example 76, (2S,5S) or (2S,5R)-5-Carbamoyl-1-[3-[[4-(4,5-difluorobenzofuran-7-yl)phenoxy]methyl]benzoyl]pyrrolidine-2-carboxylic Acid] displayed an EC50 of 22 nM.

In the case of `CSc1cc(F)c(F)cc1-c1ccc(OCc2cccc(C(=O)N(CCc3noc(C)n3)CC(=O)O)c2)cc1` [Example 60, 2-[[3-[[4-(4,5-Difluoro-2-methylsulfanyl-phenyl)phenoxy]methyl]benzoyl]-[2-(5-methyl-1,2,4-oxadiazol-3-yl)ethyl]amino]acetic Acid], the EC50 was 11 nM.

For `CCNCCN(CC(=O)O)C(=O)c1cccc(COc2ccc(-c3cc(F)c(F)cc3SC)cc2)c1` [Example 43, 2-[[3-[[4-(4,5-Difluoro-2-methylsulfanyl-phenyl)phenoxy]methyl]benzoyl]-[2-(ethylamino)ethyl]amino]acetic Acid Trifluoroacetate], the EC50 is 19 nM.

Turning to `CSc1cc(F)c(F)cc1-c1ccc(OCc2cccc(C(=O)N(CC(=O)O)Cc3ccon3)c2)cc1` [Example 66, 2-[[3-[[4-(4,5-Difluoro-2-methylsulfanyl-phenyl)phenoxy]methyl]benzoyl]-(isoxazol-3-ylmethyl)amino]acetic Acid], the EC50 was 15 nM.

With `CSc1cc(F)c(F)cc1-c1ccc(OCc2cccc(C(=O)N(CC(=O)O)Cc3cn(C)cn3)c2)cc1` [Example 74, 2-[[3-[[4-(4,5-Difluoro-2-methylsulfanyl-phenyl)phenoxy]methyl]benzoyl]-[(1-methylimidazol-4-yl)methyl]amino]acetic Acid], the EC50 was 8 nM.

With `O=C(O)[C@@H]1[C@H](O)CCN1C(=O)c1cccc(COc2ccc(-c3cc(F)c(F)c4ccoc34)cc2)c1` [Example 3, (2S,3R)-1-[3-[[4-(4,5-Difluorobenzofuran-7-yl)phenoxy]methyl]benzoyl]-3-hydroxy-pyrrolidine-2-carboxylic Acid], the EC50 came to 16 nM.

With `CSc1cc(F)c(F)cc1-c1ccc(OCc2cccc(C(=O)N(CCC(C)O)CC(=O)O)c2)cc1` (stereo not drawn) [Example 21, 2-[[3-[[4-(4,5-Difluoro-2-methylsulfanyl-phenyl)phenoxy]methyl]benzoyl]-(3-hydroxybutyl)amino]acetic Acid], the EC50 is 15 nM.

`CO[C@H]1CCN(C(=O)c2cccc(COc3ccc(-c4cc(F)c(F)c5ccoc45)cc3)c2)[C@@H]1C(=O)O` [Example 78, (2S,3S)-1-[3-[[4-(4,5-Difluorobenzofuran-7-yl)phenoxy]methyl]benzoyl]-3-methoxy-pyrrolidine-2-carboxylic Acid] had an EC50 of 20 nM.

The molecule `CSc1cc(F)c(F)cc1-c1ccc(OCc2cccc(C(=O)N(CC(=O)O)Cc3nnc(C)o3)c2)cc1` [Example 73, 2-[[3-[[4-(4,5-Difluoro-2-methylsulfanyl-phenyl)phenoxy]methyl]benzoyl]-[(5-methyl-1,3,4-oxadiazol-2-yl)methyl]amino]acetic Acid] registered an EC50 of 15 nM.

The molecule `CSc1cc(F)c(F)cc1-c1ccc(OCc2cccc(C(=O)N3C[C@H](O)C[C@H]3C(=O)O)c2)cc1` [Example 29, (2S,4R)-1-[3-[[4-(4,5-Difluoro-2-methylsulfanyl-phenyl)phenoxy]methyl]benzoyl]-4-hydroxy-pyrrolidine-2-carboxylic Acid] displayed an EC50 of 19 nM.

In turn, `CSc1cc(F)c(F)cc1-c1ccc(OCc2cccc(C(=O)N(CCNS(C)(=O)=O)CC(=O)O)c2)cc1` [Example 17, 2-[[3-[[4-(4,5-Difluoro-2-methylsulfanyl-phenyl)phenoxy]methyl]benzoyl]-[2-(methanesulfonamido)ethyl]amino]acetic Acid] had an EC50 of 10 nM.

For the molecule `CSc1cc(F)c(F)cc1-c1ccc(OCc2cccc(C(=O)N(CC(=O)O)[C@H]3CC[C@@H](N)CC3)c2)cc1` [Example 48, 2-[(4-Aminocyclohexyl)-[3-[[4-(4,5-difluoro-2-methylsulfanyl-phenyl)phenoxy]methyl]benzoyl]amino]acetic Acid Trifluoroacetate], the EC50 is 13 nM.

In the case of `CSc1cc(F)c(F)cc1-c1ccc(OCc2cccc(C(=O)N(CC(=O)O)Cc3noc(C)n3)c2)cc1` [Example 69, 2-[[3-[[4-(4,5-Difluoro-2-methylsulfanyl-phenyl)phenoxy]methyl]benzoyl]-[(5-methyl-1,2,4-oxadiazol-3-yl)methyl]amino]acetic Acid], the EC50 was 20 nM.

In the case of `COCCOCCN(CC(=O)O)C(=O)c1cccc(COc2ccc(-c3cc(F)c(F)cc3SC)cc2)c1` [Example 49, 2-[[3-[[4-(4,5-Difluoro-2-methylsulfanyl-phenyl)phenoxy]methyl]benzoyl]-[2-(2-methoxyethoxy)ethyl]amino]acetic Acid], the EC50 worked out at 9.5 nM.

The molecule `CNS(=O)(=O)CCN(CC(=O)O)C(=O)c1cccc(COc2ccc(-c3cc(F)c(F)cc3SC)cc2)c1` [Example 56, 2-[[3-[[4-(4,5-Difluoro-2-methylsulfanyl-phenyl)phenoxy]methyl]benzoyl]-[2-(methylsulfamoyl)ethyl]amino]acetic Acid] registered an EC50 below 3 nM.

In the case of `O=C(O)[C@@H]1[C@@H](O)CCN1C(=O)c1cccc(COc2ccc(-c3cc(F)c(F)c4ccoc34)cc2)c1` [Example 2, (2S,3S)-1-[3-[[4-(4,5-Difluorobenzofuran-7-yl)phenoxy]methyl]benzoyl]-3-hydroxy-pyrrolidine-2-carboxylic Acid], the EC50 turned out to be 4.3 nM.

The molecule `COC(C)CN(CC(=O)O)C(=O)c1cccc(COc2ccc(-c3cc(F)c(F)cc3SC)cc2)c1` (stereo not drawn) [Example 45, 2-[[3-[[4-(4,5-Difluoro-2-methylsulfanyl-phenyl)phenoxy]methyl]benzoyl]-(2-methoxypropyl)amino]acetic Acid] had an EC50 of 7.7 nM.

Values taken from US20160046592A1, “PHARMACEUTICAL COMPOSITION FOR THE TREATMENT OF DIABETES” (Ajinomoto Co., Inc., priority 2013, published 2016).
